Test results published in patent US20170210778A1, “NOVEL COMPOUNDS” (The Provost, Fellows, Foundation Scholars, and the other …, priority 2014, published 2017).

Tests used:
human NOD1 = biological target: T1, human NOD1 (Homo sapiens, UniProt Q9Y239); assay: NOD1 functional agonist assay, 293hNOD1-SEAP reporter cells; format: cell-based; details: 293hNOD1 cells, OD above 3*O.D of negative control
T1 construct: expressed in transfected cells; host or cells: HEK293
T1 sequence (Q9Y239 1-953): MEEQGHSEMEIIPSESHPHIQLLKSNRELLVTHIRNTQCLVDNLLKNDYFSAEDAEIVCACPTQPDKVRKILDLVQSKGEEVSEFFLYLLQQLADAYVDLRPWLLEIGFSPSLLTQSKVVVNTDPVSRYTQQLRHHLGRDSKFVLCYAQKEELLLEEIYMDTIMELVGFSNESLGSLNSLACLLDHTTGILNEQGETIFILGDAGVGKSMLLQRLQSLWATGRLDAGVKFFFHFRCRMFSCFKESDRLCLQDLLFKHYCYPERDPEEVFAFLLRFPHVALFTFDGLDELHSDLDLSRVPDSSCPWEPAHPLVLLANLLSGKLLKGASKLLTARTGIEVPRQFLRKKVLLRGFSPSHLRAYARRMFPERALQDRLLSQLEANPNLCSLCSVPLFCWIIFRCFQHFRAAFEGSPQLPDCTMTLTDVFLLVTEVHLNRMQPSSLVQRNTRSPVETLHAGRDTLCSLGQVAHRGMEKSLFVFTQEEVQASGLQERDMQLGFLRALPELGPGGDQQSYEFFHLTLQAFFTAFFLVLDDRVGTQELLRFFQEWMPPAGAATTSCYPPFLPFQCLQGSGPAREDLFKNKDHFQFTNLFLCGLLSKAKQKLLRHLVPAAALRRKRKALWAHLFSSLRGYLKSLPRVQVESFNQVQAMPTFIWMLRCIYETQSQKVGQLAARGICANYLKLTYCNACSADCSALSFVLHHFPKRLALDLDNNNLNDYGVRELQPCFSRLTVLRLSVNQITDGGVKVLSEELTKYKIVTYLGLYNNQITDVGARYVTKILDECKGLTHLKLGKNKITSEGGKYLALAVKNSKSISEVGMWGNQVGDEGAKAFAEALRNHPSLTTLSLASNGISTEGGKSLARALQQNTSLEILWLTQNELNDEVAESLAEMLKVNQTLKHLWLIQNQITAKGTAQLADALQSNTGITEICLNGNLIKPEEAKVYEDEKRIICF
Text: (§1) HEK293 cells were stably transfected with plasmid for the overexpression of the NOD1 genes and a reporter plasmid expressing a secreted embryonic alkaline phosphatase (SEAP) gene under the control of a promoter inducible by the transcription factors NF-κB and AP-1. These cells are referred herein as 293hNOD1-SEAP (for cells overexpressing the human NOD1 gene) and 293mNOD1-SEAP (for cells overexpressing the murine NOD1 gene). Upon NOD1 stimulation, these cells induce the activation of NF-κB and AP-1 and subsequently the secretion of SEAP. The reporter protein is easily detectable and measurable when using QUANTI-Blue™ (InvivoGen, San Diego, Calif.), a medium that turns purple/blue in the presence of SEAP.
(§2) The biological activity of the compounds of the invention tested using 293hNOD1 and 293mNOD1 cells. SEAP expression was measured using the commercially available SEAP detection kit (HEK-Blue™ Detection, InvivoGen). The SEAP activity in cells was quantified using the microplate reader (FLUOStar OPTIMA, BMG laboratories), the absorbance values were read using filter with excitation at 620 nm and emission at 655 nm. The results provided in Table 2 were expressed as the concentration were a significant mean optical density (OD) can be observed (above 3*O.D of negative control). As a positive control, the NOD1 pathway was stimulated with commercially available iE-DAP (InvivoGen) and C12-iE-DAP (an acylated derivative of DAP; InvivoGen). As a negative control endotoxin-free water was used. Additionally, 293 cells expressing the SEAP gene but not the NOD1 gene were used as a control.

murine NOD1 = biological target: T2, murine NOD1 (Mus musculus, UniProt Q8BHB0); assay: NOD1 functional agonist assay, 293mNOD1-SEAP reporter cells; format: cell-based; details: 293mNOD1 cells, OD above 3*O.D of negative control
T2 construct: expressed in transfected cells; host or cells: HEK293
T2 sequence (Q8BHB0 1-953): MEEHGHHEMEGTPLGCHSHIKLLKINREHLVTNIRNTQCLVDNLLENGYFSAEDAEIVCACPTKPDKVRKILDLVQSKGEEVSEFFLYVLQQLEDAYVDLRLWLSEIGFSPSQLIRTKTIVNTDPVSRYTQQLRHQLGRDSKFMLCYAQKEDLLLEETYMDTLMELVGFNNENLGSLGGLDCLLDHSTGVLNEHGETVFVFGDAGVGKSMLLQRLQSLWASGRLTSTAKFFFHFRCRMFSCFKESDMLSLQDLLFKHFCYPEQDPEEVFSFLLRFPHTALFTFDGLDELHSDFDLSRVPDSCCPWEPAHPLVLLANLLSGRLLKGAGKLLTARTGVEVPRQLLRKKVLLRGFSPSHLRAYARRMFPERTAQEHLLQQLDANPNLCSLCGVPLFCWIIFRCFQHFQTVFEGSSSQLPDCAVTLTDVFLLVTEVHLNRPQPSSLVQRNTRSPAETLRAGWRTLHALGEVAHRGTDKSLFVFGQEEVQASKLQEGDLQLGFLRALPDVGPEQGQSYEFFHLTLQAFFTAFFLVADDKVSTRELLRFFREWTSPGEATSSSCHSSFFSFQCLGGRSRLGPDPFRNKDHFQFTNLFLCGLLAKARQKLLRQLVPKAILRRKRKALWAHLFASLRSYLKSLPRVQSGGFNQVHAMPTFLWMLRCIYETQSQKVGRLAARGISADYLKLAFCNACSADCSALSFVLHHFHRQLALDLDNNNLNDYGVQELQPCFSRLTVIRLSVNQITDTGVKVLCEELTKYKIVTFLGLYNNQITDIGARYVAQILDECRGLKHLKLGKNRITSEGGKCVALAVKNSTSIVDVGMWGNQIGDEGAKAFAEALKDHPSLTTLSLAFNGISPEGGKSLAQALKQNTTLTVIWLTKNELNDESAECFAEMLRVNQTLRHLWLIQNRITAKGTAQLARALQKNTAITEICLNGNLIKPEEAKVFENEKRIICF
Text: as §1, §2

Compound	hNod1: concentration where a significant mean optical density (OD) can be observed (human NOD1)	mNod1: concentration where a significant mean optical density (OD) can be observed (murine NOD1)
N[C@H](CCC(=O)N[C@H](CSC[C@H](N)C(=O)O)C(=O)O)C(=O)O [Example 1, N^5-((S)-2-(((R)-2-amino-2-carboxyethyl)thio)-1-carboxyethyl)-D-glutamine]	1 µg/mL	10 µg/mL
CCCCCCC(=O)N[C@H](CCC(=O)N[C@H](CSC[C@H](N)C(=O)O)C(=O)O)C(=O)O [Example 2, N^5-((S)-2-(((R)-2-amino-2-carboxyethyl)thio)-1-carboxyethyl)-N^2-heptanoyl-D-glutamine]	0.1 µg/mL	1 µg/mL
CCCCCCCCCCCC(=O)N[C@H](CCC(=O)N[C@H](CSC[C@H](N)C(=O)O)C(=O)O)C(=O)O [Example 3, N^5-((S)-2-(((R)-2-amino-2-carboxyethyl)thio)-1-carboxyethyl)-N^2-dodecanoyl-D-glutamine]	0.01 µg/mL	0.1 µg/mL
CCCCCCCCCCCCCC(=O)N[C@H](CCC(=O)N[C@H](CSC[C@H](N)C(=O)O)C(=O)O)C(=O)O [Example 4, N^5-((S)-2-(((R)-2-amino-2-carboxyethyl)thio)-1-carboxyethyl)-N^2-tetradecanoyl-D-glutamine]	0.0001 µg/mL	0.001 µg/mL
C[C@H](N)C(=O)N[C@H](CCC(=O)N[C@H](CSC[C@H](N)C(=O)O)C(=O)O)C(=O)O [Example 5, N^2-(L-alanyl)-N^5-((S)-2-(((R)-2-amino-2-carboxyethyl)thio)-1-carboxyethyl)-D-glutamine]	1 µg/mL	1 µg/mL
CC(C)C[C@H](N)C(=O)N[C@H](CCC(=O)N[C@H](CSC[C@H](N)C(=O)O)C(=O)O)C(=O)O [Example 6, N^2-(L-leucyl)-N^5-((S)-2-(((R)-2-amino-2-carboxyethyl)thio)-1-carboxyethyl)-D-glutamine]	0.1 µg/mL	1 µg/mL
CC[C@@H](C)[C@H](N)C(=O)N[C@H](CCC(=O)N[C@H](CSC[C@H](N)C(=O)O)C(=O)O)C(=O)O [Example 7, N^2-(L-alloisoleucyl)-N^5-((S)-2-(((R)-2-amino-2-carboxyethyl)thio)-1-carboxyethyl)-D-glutamine]	0.1 µg/mL	1 µg/mL
CC(C)[C@H](N)C(=O)N[C@H](CCC(=O)N[C@H](CSC[C@H](N)C(=O)O)C(=O)O)C(=O)O [Example 8, N^2-(L-valyl)-N^5-((S)-2-(((R)-2-amino-2-carboxyethyl)thio)-1-carboxyethyl)-D-glutamine]	0.1 µg/mL	1 µg/mL
N[C@@H](CSC[C@@H](NC(=O)CC[C@@H](NC(=O)[C@@H](N)Cc1ccccc1)C(=O)O)C(=O)O)C(=O)O [Example 9, N^2-(L-phenylalanyl)-N^5-((S)-2-(((R)-2-amino-2-carboxyethyl)thio)-1-carboxyethyl)-D-glutamine]	10 µg/mL	10 µg/mL
CCCCCCCCCCCCCC(=O)N[C@@H](CC(C)C)C(=O)N[C@H](CCC(=O)N[C@H](CSC[C@H](N)C(=O)O)C(=O)O)C(=O)O [Example 10, N^5-((S)-2-(((R)-2-amino-2-carboxyethyl)thio)-1-carboxyethyl)-N^2-(tetradecanoyl-L-leucyl)-D-glutamine]	0.001 µg/mL	0.1 µg/mL
CCCCCCCCCCCCCC(=O)N[C@H](C(=O)N[C@H](CCC(=O)N[C@H](CSC[C@H](N)C(=O)O)C(=O)O)C(=O)O)C(C)C [Example 12, N^5-((S)-2-(((R)-2-amino-2-carboxyethyl)thio)-1-carboxyethyl)-N^2-(tetradecanoyl-L-valyl)-D-glutamine]	0.001 µg/mL	0.1 µg/mL
CCCCCCCCCCCCCC(=O)N[C@@H](Cc1ccccc1)C(=O)N[C@H](CCC(=O)N[C@H](CSC[C@H](N)C(=O)O)C(=O)O)C(=O)O [Example 13, N^5-((S)-2-(((R)-2-amino-2-carboxyethyl)thio)-1-carboxyethyl)-N^2-(tetradecanoyl-L-phenylalanyl)-D-glutamine]	0.001 µg/mL	1 µg/mL
C[C@@H](NC(=O)[C@@H](CSC[C@H](N)C(=O)O)NC(=O)CC[C@@H](N)C(=O)O)C(=O)O [Example 14, N^5-((S)-3-(((R)-2-amino-2-carboxyethyl)thio)-1-(((R)-1-carboxyethyl)amino)-1-oxopropan-2-yl)-D-glutamine]	1 µg/mL	10 µg/mL
CCCCCCCCCCCC(=O)N[C@H](CCC(=O)N[C@H](CSC[C@H](N)C(=O)O)C(=O)N[C@H](C)C(=O)O)C(=O)O [Example 16, N^5-((S)-3-(((R)-2-amino-2-carboxyethyl)thio)-1-(((R)-1-carboxyethyl)amino)-1-oxopropan-2-yl)-N^2-dodecanoyl-D-glutamine]	0.01 µg/mL	0.001 µg/mL
CCCCCCCCCCCCCC(=O)N[C@H](CCC(=O)N[C@H](CSC[C@H](N)C(=O)O)C(=O)N[C@H](C)C(=O)O)C(=O)O [Example 17, N^5-((S)-3-(((R)-2-amino-2-carboxyethyl)thio)-1-(((R)-1-carboxyethyl)amino)-1-oxopropan-2-yl)-N^2-tetradecanoyl-D-glutamine]	0.01 µg/mL	0.001 µg/mL
